From US20240116985A1, “STAPLED PEPTIDES AND METHODS THEREOF” (priority 2020, published 2024)
Values after ≈ are worked out from the molar mass of the structure shown. Read-outs that look alike come from different tables or passages of the source.

Columns and labels:
[1] = target: T1, full-length beta-Catenin (Uniprot ID P35222) (Homo sapiens, UniProt P35222); experiment: Fluorescence polarization IC50 (beta-catenin / 5FAM-TCF4 10-53 competition); type: binding
T1 construct: 10 nM full-length beta-Catenin (Uniprot ID P35222)
T1 sequence (P35222 1-781): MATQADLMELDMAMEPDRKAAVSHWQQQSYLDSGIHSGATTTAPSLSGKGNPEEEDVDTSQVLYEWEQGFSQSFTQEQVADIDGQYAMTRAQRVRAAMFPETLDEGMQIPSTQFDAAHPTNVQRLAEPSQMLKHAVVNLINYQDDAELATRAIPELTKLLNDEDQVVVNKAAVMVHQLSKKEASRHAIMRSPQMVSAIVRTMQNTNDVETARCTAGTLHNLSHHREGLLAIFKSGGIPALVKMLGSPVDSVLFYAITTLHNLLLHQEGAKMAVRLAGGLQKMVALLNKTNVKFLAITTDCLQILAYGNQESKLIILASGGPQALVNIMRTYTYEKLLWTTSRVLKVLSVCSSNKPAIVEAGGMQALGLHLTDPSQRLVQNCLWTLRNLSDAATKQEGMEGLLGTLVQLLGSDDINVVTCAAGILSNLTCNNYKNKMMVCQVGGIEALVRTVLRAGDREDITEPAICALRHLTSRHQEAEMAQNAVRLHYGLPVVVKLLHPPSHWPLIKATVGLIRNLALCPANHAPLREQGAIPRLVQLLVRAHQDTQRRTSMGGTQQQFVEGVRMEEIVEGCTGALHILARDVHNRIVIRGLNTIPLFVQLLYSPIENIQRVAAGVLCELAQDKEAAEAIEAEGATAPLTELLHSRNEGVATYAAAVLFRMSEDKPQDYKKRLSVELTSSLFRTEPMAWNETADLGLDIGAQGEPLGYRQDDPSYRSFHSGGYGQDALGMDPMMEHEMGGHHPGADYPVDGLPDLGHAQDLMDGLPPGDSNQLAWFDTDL

CHI Log D procedure = type: physicochemical; conditions: for CHI Log D: pH 7.4; for chromatographic logD: pH 7.4, CHI Log D
Solubility in PBS = type: physicochemical
In short: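 The PBS solution was ultracentrifuged and the supernatant analyzed by HPLC. Its peak area was divided by that of a 50 μM peptide DMSO reference injection and multiplied by 50 uM to give solubility.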

[2] = target: T2, beta-catenin/TCF4 engagement (Homo sapiens, UniProt P35222); experiment: Nano-BRET target engagement assay (B-cat-Halo & TCF4-Luc in HEK293 cells); type: cell-based
T2 construct: expressed in transfected cells; host or cells: HEK293
T2 sequence (P35222 1-781): T1 sequence (P35222 1-781)

[3] = fluorescence polarization, read-out: beta-Catenin FP IC50
[4] = absolute IC50, read-out: NanoBRET Abs IC50
[5] = Abs IC50, read-out: NanoBRET Abs IC50

| IC50 [1, 3] | CHI Log D (CHI Log D procedure) | Solubility (Solubility in PBS) | IC50 [2, 4] | IC50 ([1]; read-out: FP EC50) | chromatographic logD (CHI Log D procedure) | IC50 [2, 5] | Solubility (Solubility in PBS; Solubility (uM)) | IC50 ([2]; read-out: NanoBRET IC50) | Structure (SMILES) |
| --- | --- | --- | --- | --- | --- | --- | --- | --- | --- |
| 5 nM | 2.093 | 21 µM (≈ 40.8 µg/mL) | 14700 nM | – | – | – | – | – | CC(=O)N1CCC[C@]12CC=CCCCC1(CCCC=CCCCOC(=O)N3CC[C@@](C(=O)N[C@@H](Cc4ccsc4)C(=O)N[C@@H](Cc4csc5ccccc45)C(=O)N[C@@H](Cc4c[nH]cn4)C(N)=O)(C3)NC(=O)[C@H](CC(N)=O)NC(=O)[C@H](Cc3ccccc3)NC(=O)[C@H](C)NC(=O)[C@H](C)NC(=O)[C@H](CCC(=O)O)NC(=O)[C@H](CC(=O)O)NC1=O)NC(=O)[C@H](CC(C)(C)C)NC(=O)[C@H](CC(=O)O)NC2=O (stereo partly drawn) [I-697, Ac-PL3-Asp-Npg-B5-Asp-Glu-Ala-Ala-Phe-Asn-PyrS2-3Thi-BztA-His-NH2] |
| 34 nM | 2.631 | 46 µM (≈ 90.7 µg/mL) | 18100 nM | 34 nM | – | – | – | – | CC[C@H](C)[C@@H]1NC(=O)[C@H](CC(=O)O)NC(=O)[C@]2(CC=CCCCC3(CCCC=CCCCCCC[C@@](C)(C(=O)N[C@@H](Cc4ccsc4)C(=O)N[C@@H](Cc4csc5ccccc45)C(=O)N[C@@H](CCC(N)=O)C(N)=O)NC(=O)[C@H](CC(N)=O)NC(=O)[C@H](Cc4ccccc4)NC(=O)[C@H](C)NC(=O)[C@H](C)NC(=O)[C@H](CN(CC(=O)O)CC(F)(F)F)NC(=O)[C@H](CC(=O)O)NC3=O)NC1=O)CCCN2C(C)=O (stereo partly drawn) [I-701, Ac-PL3-Asp-Ile-B5-Asp-TfeGA-Ala-Ala-Phe-Asn-S8-3Thi-BztA-Gln-NH2] |
| 57 nM | – | 50 µM (≈ 99 µg/mL) | – | – | 2.76 | 11900 nM | – | – | CC(=O)N1CCC[C@]12CC=CCCCC1(CCCC=CCCCCCC[C@@](C)(C(=O)N[C@@H](Cc3ccccc3)C(=O)N[C@@H](Cc3csc4ccccc34)C(=O)N[C@@H](CCC(N)=O)C(N)=O)NC(=O)[C@H](CC(N)=O)NC(=O)[C@H](Cc3ccccc3)NC(=O)[C@H](C)NC(=O)[C@H](C)NC(=O)[C@H](CN(CC(=O)O)CC(F)(F)F)NC(=O)[C@H](CC(=O)O)NC1=O)NC(=O)[C@H](CC(C)(C)C)NC(=O)[C@H](CC(=O)O)NC2=O (stereo partly drawn) [I-703, Ac-PL3-Asp-Npg-B5-Asp-TfeGA-Ala-Ala-Phe-Asn-S8-Phe-BztA-Gln-NH2] |
| 49 nM | – | – | – | – | 2.75 | – | 42 µM (≈ 83.4 µg/mL) | 7900 nM | CC(=O)N1CCC[C@]12CC=CCCCC1(CCCC=CCCCCCC[C@@](C)(C(=O)N[C@@H](Cc3ccsc3)C(=O)N[C@@H](Cc3csc4ccccc34)C(=O)N[C@@H](CCC(N)=O)C(N)=O)NC(=O)[C@H](CC(N)=O)NC(=O)[C@H](Cc3ccccc3)NC(=O)[C@H](C)NC(=O)[C@H](C)NC(=O)[C@H](CN(CC(=O)O)CC(F)(F)F)NC(=O)[C@H](CC(=O)O)NC1=O)NC(=O)[C@H](CC(C)(C)C)NC(=O)[C@H](CC(=O)O)NC2=O (stereo partly drawn) [I-704, Ac-PL3-Asp-Npg-B5-Asp-TfeGA-Ala-Ala-Phe-Asn-S8-3Thi-BztA-Gln-NH2] |
| 52 nM | 2.976 | 47 µM (≈ 94.6 µg/mL) | – | 52 nM | – | – | – | 11500 nM | CC(=O)N1CCC[C@]12CC=CCCCC1(CCCC=CCCCCCC[C@@](C)(C(=O)N[C@@H](Cc3ccsc3)C(=O)N[C@@H](Cc3csc4ccccc34)C(=O)N[C@@H](CCC(N)=O)C(N)=O)NC(=O)[C@H](CC(N)=O)NC(=O)[C@H](Cc3ccccc3)NC(=O)[C@H](C)NC(=O)[C@H](C)NC(=O)[C@H](CN(CC(=O)O)CC(F)(F)F)NC(=O)[C@H](CC(=O)O)NC1=O)NC(=O)[C@H](CC1CCCCC1)NC(=O)[C@H](CC(=O)O)NC2=O (stereo partly drawn) [I-708, Ac-PL3-Asp-Cha-B5-Asp-TfeGA-Ala-Ala-Phe-Asn-S8-3Thi-BztA-Gln-NH2] |
| 35 nM | 2.377 | 44 µM (≈ 85.4 µg/mL) | 11200 nM | 35 nM | – | – | – | – | CC(=O)N1CCC[C@]12CC=CCCCC1(CCCC=CCCCCCC[C@@](C)(C(=O)N[C@@H](Cc3ccccc3)C(=O)N[C@@H](Cc3csc4ccccc34)C(=O)N[C@@H](CCC(N)=O)C(=O)N[C@@H](C)C(N)=O)NC(=O)[C@H](CC(N)=O)NC(=O)[C@H](Cc3ccccc3)NC(=O)[C@H](C)NC(=O)[C@H](C)NC(=O)[C@H](CCC(=O)O)NC(=O)[C@H](CC(=O)O)NC1=O)NC(=O)[C@H](CC(C)C)NC(=O)[C@H](CC(=O)O)NC2=O (stereo partly drawn) [I-730, Ac-PL3-Asp-Leu-B5-Asp-Glu-Ala-Ala-Phe-Asn-S8-Phe-BztA-Gln-Ala-NH2] |
| 34 nM | – | – | 11600 nM | – | 2.33 | – | 48 µM (≈ 93.1 µg/mL) | – | CC(=O)N1CCC[C@]12CC=CCCCC1(CCCC=CCCCCCC[C@@](C)(C(=O)N[C@@H](Cc3ccccc3)C(=O)N[C@@H](Cc3csc4ccccc34)C(=O)N[C@@H](CCC(N)=O)C(=O)N[C@H](C)C(N)=O)NC(=O)[C@H](CC(N)=O)NC(=O)[C@H](Cc3ccccc3)NC(=O)[C@H](C)NC(=O)[C@H](C)NC(=O)[C@H](CCC(=O)O)NC(=O)[C@H](CC(=O)O)NC1=O)NC(=O)[C@H](CC(C)C)NC(=O)[C@H](CC(=O)O)NC2=O (stereo partly drawn) [I-731, Ac-PL3-Asp-Leu-B5-Asp-Glu-Ala-Ala-Phe-Asn-S8-Phe-BztA-Gln-dAla-NH2] |
| 40 nM | 2.472 | 45 µM (≈ 82.9 µg/mL) | 9000 nM | 40 nM | – | – | – | – | CC(=O)N1CCC[C@]12CC=CCCCC1(CCCC=CCCCCCC[C@@](C)(C(=O)N[C@@H](Cc3ccccc3)C(=O)N[C@@H](Cc3csc4ccccc34)C(=O)N[C@H](C(N)=O)[C@@H](C)O)NC(=O)[C@H](CC(N)=O)NC(=O)[C@H](Cc3ccccc3)NC(=O)[C@H](C)NC(=O)[C@H](C)NC(=O)[C@H](CCC(=O)O)NC(=O)[C@H](CC(=O)O)NC1=O)NC(=O)[C@H](CC(C)C)NC(=O)[C@H](CC(=O)O)NC2=O (stereo partly drawn) [I-749, Ac-PL3-Asp-Leu-B5-Asp-Glu-Ala-Ala-Phe-Asn-S8-Phe-BztA-Thr-NH2] |
| 43 nM | 2.441 | 48 µM (≈ 87.7 µg/mL) | 7400 nM | 43 nM | – | – | – | – | CC(=O)N1CCC[C@]12CC=CCCCC1(CCCC=CCCCCCC[C@@](C)(C(=O)N[C@@H](Cc3ccccc3)C(=O)N[C@@H](Cc3csc4ccccc34)C(=O)N[C@@H](CO)C(N)=O)NC(=O)[C@H](CC(N)=O)NC(=O)[C@H](Cc3ccccc3)NC(=O)[C@H](C)NC(=O)[C@H](C)NC(=O)[C@H](CCC(=O)O)NC(=O)[C@H](CC(=O)O)NC1=O)NC(=O)[C@H](CC(C)C)NC(=O)[C@H](CC(=O)O)NC2=O (stereo partly drawn) [I-750, Ac-PL3-Asp-Leu-B5-Asp-Glu-Ala-Ala-Phe-Asn-S8-Phe-BztA-Ser-NH2] |
| 29 nM | 2.513 | 48 µM (≈ 87.7 µg/mL) | 7100 nM | 29 nM | – | – | – | – | CC(=O)N1CCC[C@]12CC=CCCCC1(CCCC=CCCCCCC[C@@](C)(C(=O)N[C@@H](Cc3ccccc3)C(=O)N[C@@H](Cc3csc4ccccc34)C(=O)N[C@@H](CO)C(N)=O)NC(=O)[C@H](CC(N)=O)NC(=O)[C@H](Cc3ccccc3)NC(=O)[C@H](C)NC(=O)[C@H](C)NC(=O)[C@H](CCC(=O)O)NC(=O)[C@H](CC(=O)O)NC1=O)NC(=O)[C@H](CC(C)C)NC(=O)[C@H](CC(=O)O)NC2=O (stereo partly drawn) [I-751, Ac-PL3-Asp-Leu-B5-Asp-Glu-Ala-Ala-Phe-Asn-S8-Phe-BztA-Ser-NH2] |
| 14 nM | 2.432 | 50 µM (≈ 92.8 µg/mL) | 10000 nM | 14 nM | – | 10000 nM | – | – | CC(=O)N1CCC[C@]12CC=CCCCC1(CCCC=CCCCCCC[C@@](C)(C(=O)N[C@@H](Cc3ccccc3)C(=O)N[C@@H](Cc3csc4ccccc34)C(=O)N[C@@H](CC(N)=O)C(N)=O)NC(=O)[C@H](CC(N)=O)NC(=O)[C@H](Cc3ccccc3)NC(=O)[C@H](C)NC(=O)[C@H](C)NC(=O)[C@H](CCC(=O)O)NC(=O)[C@H](CC(=O)O)NC1=O)NC(=O)[C@H](CC(C)C)NC(=O)[C@H](CC(=O)O)NC2=O (stereo partly drawn) [I-753, Ac-PL3-Asp-Leu-B5-Asp-Glu-Ala-Ala-Phe-Asn-S8-Phe-BztA-Asn-NH2] |
